# Assay results from ChEMBL document CHEMBL1137289, “Structure-activity relationships of novel antibacterial translation inhibitors: 3,5-diamino-piperidinyl triazines” (Bioorg Med Chem Lett, 2006).
# What was measured:
# Escherichia coli [1] = experiment: microbe, parasite or virus in culture; details: ATCC 25922
# Description: Antibacterial activity against Escherichia coli ATCC 25922
# Escherichia coli [2] = experiment: Inhibition of protein synthesis in Escherichia coli S30 extracts by coupled transcription-translation assay; type: functional
# Pseudomonas aeruginosa = experiment: Antibacterial activity against Pseudomonas aeruginosa ATCC 27853; type: functional
# Staphylococcus aureus = experiment: microbe, parasite or virus in culture; details: ATCC 25923
# Description: Antibacterial activity against Staphylococcus aureus ATCC 25923
# [3] = (§1) Cytotoxicity against CEM T cells after 72 hrs by proliferation assay; type: cell-based, CCRF-CEM; details: human, CCRF-CEM (CEM) T cells
# Escherichia coli [4] = experiment: Antibacterial activity against wild type impermeable Escherichia coli LMG194; type: functional
# Escherichia coli [5] = experiment: Antibacterial activity against isogenic permeable mutant Escherichia coli LMG194; type: functional
# CCRF-CEM = experiment: as §1; type: cell-based; details: human, ccrf-cem, 72 h
Compound,MIC (Escherichia coli [1]) [µg/mL],IC50 (Escherichia coli [2]; Escherichia coli) [µM],MIC (Staphylococcus aureus) [µg/mL],other results
N[C@@H]1C[C@H](N)CN(c2nc(Nc3ccc(C(=O)CC(=O)Nc4cccc(Br)c4)cc3)nc(N3C[C@H](N)C[C@H](N)C3)n2)C1,2,5,16,MIC (Pseudomonas aeruginosa): ≤ 1 µg/mL; CC50 at 72 h [3]: 124 µM
N[C@@H]1C[C@H](N)CN(c2nc(Nc3ccc(NC(=O)c4ccc5ccccc5c4O)cc3)nc(N3C[C@H](N)C[C@H](N)C3)n2)C1,1,10,2,MIC (Pseudomonas aeruginosa): 1 µg/mL; CC50 at 72 h [3]: 140 µM
CCN(CC)c1nc(N2C[C@H](N)C[C@H](N)C2)nc(N2C[C@H](N)C[C@H](N)C2)n1,–,180,–,–
N[C@@H]1C[C@H](N)CN(c2nc(Nc3ccc(F)cc3)nc(N3C[C@H](N)C[C@H](N)C3)n2)C1,64,3,16,MIC (Escherichia coli [4]): 32 µg/mL; MIC (Escherichia coli [5]): 4 µg/mL
N[C@@H]1C[C@H](N)CN(c2nc(Nc3ccc(C(=O)Nc4ccc(Cl)c(Cl)c4)c(O)c3)nc(N3C[C@H](N)C[C@H](N)C3)n2)C1,2,10,–,–
Nc1ccc(Nc2nc(N3C[C@H](N)C[C@H](N)C3)nc(N3C[C@H](N)C[C@H](N)C3)n2)cc1,–,8,–,–
CN(C)c1nc(N2C[C@H](N)C[C@H](N)C2)nc(N2C[C@H](N)C[C@H](N)C2)n1,–,290,–,–
N[C@@H]1C[C@H](N)CN(c2nc(Nc3cccc(C(F)(F)F)c3)nc(N3C[C@H](N)C[C@H](N)C3)n2)C1,32,5,16,MIC (Escherichia coli [4]): 32 µg/mL; MIC (Escherichia coli [5]): 4 µg/mL
N[C@@H]1C[C@H](N)CN(c2nc(Nc3ccc(O)cc3)nc(N3C[C@H](N)C[C@H](N)C3)n2)C1,> 64,11,> 64,MIC (Escherichia coli [4]): > 64 µg/mL
N[C@@H]1C[C@H](N)CN(c2nc(NC3CCCCC3)nc(N3C[C@H](N)C[C@H](N)C3)n2)C1,–,63,–,–
CNc1nc(N2C[C@H](N)C[C@H](N)C2)nc(N2C[C@H](N)C[C@H](N)C2)n1,–,62,–,–
N[C@@H]1C[C@H](N)CN(c2nc(Nc3ccon3)nc(N3C[C@H](N)C[C@H](N)C3)n2)C1,–,9,–,–
COc1cc(Nc2nc(N3C[C@H](N)C[C@H](N)C3)nc(N3C[C@H](N)C[C@H](N)C3)n2)ccc1NC(=O)c1ccc(Cl)cc1O,4,8,–,–
COc1cccc(Nc2nc(N3C[C@H](N)C[C@H](N)C3)nc(N3C[C@H](N)C[C@H](N)C3)n2)c1NC(=O)c1ccc(Cl)cc1O,> 64,30,–,–
N[C@@H]1C[C@H](N)CN(c2nc(Nc3ccc(C(=O)CC(=O)Nc4ccccc4Cl)cc3)nc(N3C[C@H](N)C[C@H](N)C3)n2)C1,4,4,16,MIC (Pseudomonas aeruginosa): ≤ 1 µg/mL; CC50 at 72 h [3]: 71 µM
Cc1ccc(S(=O)(=O)N(Cc2ccccc2)c2ccc(Nc3nc(N4C[C@H](N)C[C@H](N)C4)nc(N4C[C@H](N)C[C@H](N)C4)n3)cc2O)cc1,4,4,16,MIC (Pseudomonas aeruginosa): 16 µg/mL; CC50 at 72 h [3]: 68 µM
NNc1nc(N2C[C@H](N)C[C@H](N)C2)nc(N2C[C@H](N)C[C@H](N)C2)n1,–,170,–,–
N[C@@H]1C[C@H](N)CN(c2nc(Nc3ccccc3)nc(N3C[C@H](N)C[C@H](N)C3)n2)C1,> 64,7,> 64,MIC (Escherichia coli [4]): > 64 µg/mL
N[C@@H]1C[C@H](N)CN(c2nc(Nc3ccc(NC(=O)c4cccc(O)c4O)cc3)nc(N3C[C@H](N)C[C@H](N)C3)n2)C1,8,5,–,–
N[C@@H]1C[C@H](N)CN(c2nc(Cl)nc(N3C[C@H](N)C[C@H](N)C3)n2)C1,–,42,–,–
N[C@@H]1C[C@H](N)CN(c2nc(Nc3ccc(NC(=O)C(=O)c4c[nH]c5ccccc45)c(O)c3)nc(N3C[C@H](N)C[C@H](N)C3)n2)C1,1,4,16,MIC (Pseudomonas aeruginosa): ≤ 0.5 µg/mL; CC50 at 72 h [3]: 92 µM
O=C(N[C@H](CO)[C@H](O)c1ccc([N+](=O)[O-])cc1)C(Cl)Cl [CHLORAMPHENICOL],4,1.5,8,MIC (Pseudomonas aeruginosa): > 64 µg/mL
NC[C@H]1O[C@H](O[C@H]2[C@H](O)[C@@H](O[C@H]3O[C@H](CO)[C@@H](O)[C@H](N)[C@H]3O)[C@H](N)C[C@@H]2N)[C@H](O)[C@@H](O)[C@@H]1O [KANAMYCIN],–,0.4,–,–
CN(C)[C@@H]1C(O)=C(C(N)=O)C(=O)[C@@]2(O)C(O)=C3C(=O)c4c(O)cccc4[C@@](C)(O)[C@H]3C[C@@H]12 [TETRACYCLINE],–,2.8,–,–
GENTAMICIN,–,–,–,IC50 (Escherichia coli [2]): 0.03 µM; CC50 (CCRF-CEM): > 300 µM
